Measured values as given in patent US5399565A, “Pyrazolidinone CCK and gastrin antagonists and pharmaceutical formulations therof” (priority 1993, dated 1995).

Legend:
pKa by titration = details: for pKa: 2:1 dmf:h2o, titration pKa
[1] = target: T1, peripheral type CCK receptors in rat pancreas (Rattus norvegicus, UniProt P30551); test: Binding to peripheral type CCK receptors in rat pancreas (3H-L-364,718); details: for inhibition at 10 µM: read-out: Pancreas Percent Inhibition; for IC50: rat pancreas
T1 construct: Pancreas was obtained from male Sprague-Dawley rats; from tissue; host or cells: pancreas membranes of male Sprague-Dawley rats
T1 sequence (P30551 1-444): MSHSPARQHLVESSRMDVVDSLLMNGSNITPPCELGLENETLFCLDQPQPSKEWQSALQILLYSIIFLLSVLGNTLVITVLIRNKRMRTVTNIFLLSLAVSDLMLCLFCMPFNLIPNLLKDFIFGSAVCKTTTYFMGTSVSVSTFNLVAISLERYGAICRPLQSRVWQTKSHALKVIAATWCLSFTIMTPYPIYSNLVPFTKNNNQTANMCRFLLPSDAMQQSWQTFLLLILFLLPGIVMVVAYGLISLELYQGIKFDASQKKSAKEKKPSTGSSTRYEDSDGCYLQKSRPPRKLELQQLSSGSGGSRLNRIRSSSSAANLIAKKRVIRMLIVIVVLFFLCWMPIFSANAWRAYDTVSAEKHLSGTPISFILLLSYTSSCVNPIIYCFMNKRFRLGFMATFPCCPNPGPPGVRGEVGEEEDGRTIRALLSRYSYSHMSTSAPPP
Summary of the method: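 Washed pancreatic membranes from male Sprague-Dawley rats (150-200 g) incubated 1 h at room temperature with 0.4-0.6 nM ³H-L-364,718 in 50 mM Tris pH 7.4, 5 mM MgCl2, bacitracin, 5 mM DTT. Bound radioactivity counted after filtration; nonspecific binding defined with 100 nM L-364,718; IC50 determined.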

brain CCK receptor = target: T2, brain CCK receptor (Mus musculus, UniProt P56481); test: CCK receptor binding, mouse brain membranes (125I-CCK-8 sulfate); details: for inhibition at 10 µM: read-out: Brain Percent Inhibition; for IC50: mouse brain membranes, read-out: Brain IC50
T2 construct: from tissue; host or cells: forebrain membranes of male CF-1 mice
T2 sequence (P56481 1-453): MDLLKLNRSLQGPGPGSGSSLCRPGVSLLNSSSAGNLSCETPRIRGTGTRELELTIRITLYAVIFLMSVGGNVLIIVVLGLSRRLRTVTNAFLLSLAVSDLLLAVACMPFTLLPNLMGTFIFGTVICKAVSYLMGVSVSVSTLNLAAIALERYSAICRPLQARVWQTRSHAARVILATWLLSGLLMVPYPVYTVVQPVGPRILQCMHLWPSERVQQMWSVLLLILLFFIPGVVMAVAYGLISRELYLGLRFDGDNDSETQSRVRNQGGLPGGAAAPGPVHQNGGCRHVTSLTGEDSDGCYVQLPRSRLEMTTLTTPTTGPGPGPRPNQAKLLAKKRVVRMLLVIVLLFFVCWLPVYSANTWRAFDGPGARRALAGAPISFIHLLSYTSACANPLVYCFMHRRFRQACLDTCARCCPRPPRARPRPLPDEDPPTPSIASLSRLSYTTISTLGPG

gastrin receptor = target: T3, gastrin receptor (Cavia porcellus, UniProt H0VZC5); test: Gastrin binding to guinea pig stomach mucosal membranes (125I-gastrin I); details: guinea pig stomach mucosal membranes; read-out: Gastrin IC50
T3 construct: Guinea pig stomach fundus was obtained from male Hartley guinea pigs; from tissue; host or cells: stomach fundus mucosal membranes of male Hartley guinea pigs
T3 sequence (H0VZC5 1-426): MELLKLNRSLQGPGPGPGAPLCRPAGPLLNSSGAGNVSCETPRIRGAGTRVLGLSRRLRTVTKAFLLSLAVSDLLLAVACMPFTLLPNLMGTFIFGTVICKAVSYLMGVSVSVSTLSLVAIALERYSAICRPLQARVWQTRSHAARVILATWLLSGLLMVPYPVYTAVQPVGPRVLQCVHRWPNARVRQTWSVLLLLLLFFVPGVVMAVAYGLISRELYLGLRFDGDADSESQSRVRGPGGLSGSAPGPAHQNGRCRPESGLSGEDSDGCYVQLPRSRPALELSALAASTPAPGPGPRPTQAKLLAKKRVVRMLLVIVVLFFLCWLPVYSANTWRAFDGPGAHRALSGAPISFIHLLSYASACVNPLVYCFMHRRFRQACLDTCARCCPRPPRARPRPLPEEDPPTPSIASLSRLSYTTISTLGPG
Method: The method used for gastrin binding to guinea pig stomach mucosal membranes was similar to that described by Takeuchi, Speir and Johnson (Am. J. Physiol. 237(3): E284-E294, 1979). Guinea pig stomach fundus was obtained from male Hartley guinea pigs, 300-350 g, and the mucosa was scraped off with a glass slide. The mucosa was homogenized in 50 mM Tris buffer, pH 7.4, containing 1 mM phenylmethanesulfonyl fluoride using a Dounce glass homogenizer, and the suspension was centrifuged at 40,000 g for 10 min. The resulting pellet was resuspended and centrifuged once more, the final pellet was then suspended in 100 ml assay buffer per 1 guinea pig stomach to give a protein concentration of 200-300 μg/200 μl. The assay buffer consisted of 50 mM Tris buffer, pH 7.4, 5 mM MgCl2, 0.14 mg/ml bacitracin, and 1 μg/ml each of leupeptin, chymostatin, aprotinin and pepstatin. Reagent volumes for the assay were the same as those used for CCK binding to brain membranes. The radioactive ligand was 20 pM ^125 I-gastrin I, from DuPont NEN (NEX-176). The samples were incubated 3 hours at room temperature and filtered and counted as described for CCK binding to brain membranes. Compound samples were prepared and IC-50 values were determined as described for the CCK-brain receptor binding. Non-specific binding was determined using 100 nM gastrin I (human synthetic from Sigma Chemical Co.).

SMILES | pKa (pKa by titration; first or only value) | inhibition at 10 µM [1] [%] | inhibition at 10 µM (brain CCK receptor) [%] | IC50 (brain CCK receptor) [nM] | IC50 [1] [nM] | IC50 (gastrin receptor) [nM] | pKa (pKa by titration; second value) | titration pKa (pKa by titration; 2:1 DMF:H2O, first or only value, listed as Diastereomer B)
C[C@@H](OC(=O)N1NC(=O)[C@@H](c2ccccc2)[C@@H]1c1ccccc1)c1ccccc1 (single isomer, unassigned) [Example 139A] | 8.7 |  |  |  |  |  |  | 
O=C1NN(c2nc3ccc(Cl)cc3s2)[C@@H](c2ccccc2)[C@@H]1c1ccccc1 (relative stereo) [Example 9, 1-[6-Chloro-2-benzothiazolyl]-4,5-diphenyl-3-pyrazolidinone] | 6.6 | 33 |  | 3700 |  |  |  | 
O=C1NN(C(=S)Nc2ccc3ccccc3c2)[C@@H](c2ccccc2)[C@@H]1c1ccccc1 (relative stereo) [Example 136, 1-[(2-Naphthyl)aminothiocarbonyl]-4,5-diphenyl-3-pyrazolidinone] | 5.8 |  |  |  | 160 |  |  | 
O=C1NN(C(=O)Nc2ccc(OCc3ccccc3)cc2)[C@@H](c2ccccc2)[C@@H]1c1ccccc1 (relative stereo) [Example 3, 1-[(4-Benzyloxyphenyl)aminocarbonyl]-4,5-diphenyl-3-pyrazolidinone] | 7.7 | 34 |  | 54 |  | 1100 |  | 
O=C1NN(C(=O)Nc2ccc(Br)cc2)C(c2ccccc2)C1c1cccc(Cl)c1 (stereo not shown) [Example 126] |  | 59 |  | 11 |  | 210 |  | 
CN(C)c1ccc(NC(=O)N2NC(=O)[C@@H](c3ccccc3)[C@@H]2c2ccccc2)cc1 (relative stereo) [Example 2, 1-[(4-N,N-Dimethylaminophenyl)aminocarbonyl]-4,5-diphenyl-3-pyrazolidinone] | 4 | 14 |  | 290 |  |  | 7.9 | 
O=C1NN(C(=O)c2cc3ccccc3[nH]2)[C@@H](c2ccccc2)[C@@H]1c1ccccc1 (relative stereo) [Example 14, 1-(Indole-2-carbonyl)-4,5-diphenyl-3-pyrazolidinone] | 6.75 | 60 |  | 2600 |  |  |  | 
CSc1ccc(NC(=O)N2NC(=O)[C@@H](c3ccccc3)[C@@H]2c2ccccc2)cc1 (relative stereo) [Example 38] |  | 53 |  | 56 |  | 240 |  | 
C[C@@H](OC(=O)N1NC(=O)[C@@H](c2ccccc2)[C@@H]1c1ccccc1)c1ccccc1 (single isomer, unassigned) [Example 139B] |  |  |  |  |  |  |  | 8.6
O=C1NN(C(=O)Nc2ccc(Br)cc2)[C@@H](c2ccccc2Cl)[C@@H]1c1ccccc1Cl (relative stereo) [Example 133] |  |  |  | 6 | 7900 | 25 |  | 

The next lines start with the values.

pKa (pKa by titration; first or only value) | inhibition at 10 µM [1] [%] | inhibition at 10 µM (brain CCK receptor) [%] | IC50 (brain CCK receptor) [nM] | IC50 [1] [nM] | IC50 (gastrin receptor) [nM] | pKa (pKa by titration; second value) | titration pKa (pKa by titration; 2:1 DMF:H2O, first or only value, listed as Diastereomer B) | SMILES
7.15 | 18 | 77 |  |  |  |  |  | O=C1NN(C(=O)c2cccc(C(F)(F)F)c2)[C@@H](c2ccccc2)[C@@H]1c1ccccc1 (relative stereo) [Example 5]
8.4 | 81 |  | 1100 |  |  |  |  | O=C1NN(C(=O)NCc2ccc(Cl)c(Cl)c2)[C@@H](c2ccccc2)[C@@H]1c1ccccc1 (relative stereo) [Example 7, 1-[(3,4-Dichlorobenzyl)aminocarbonyl]-4,5-diphenyl-3pyrazolidinone]
7.8 | 15 |  | 4400 |  |  |  |  | O=C1NN(C(=O)Oc2ccc(Cl)cc2)[C@@H](c2ccccc2)[C@@H]1c1ccccc1 (relative stereo) [Example 6, 1-[(4-Chlorophenyl)oxycarbonyl]-4,5-diphenyl-3pyrazolidinone]
 | 36 |  | 150 |  | 730 |  |  | CC(C)Oc1cccc(C2C(=O)NN(C(=O)Nc3ccc(Br)cc3)C2c2ccccc2)c1 (stereo not shown) [Example 124]
 | 75 |  | 290 |  | 660 |  |  | O=C1NN(C(=O)Nc2ccc3ncccc3c2)[C@@H](c2ccccc2)[C@@H]1c1ccccc1 (relative stereo) [Example 93]
4.5 | 4 | 57 |  |  |  | 8.1 |  | Nc1ccc(NC(=O)N2NC(=O)[C@@H](c3ccccc3)[C@@H]2c2ccccc2)cc1 (relative stereo) [Example 10, 1-[(4-Aminophenyl)aminocarbonyl]-4,5-diphenyl-3-pyrazolidinone]
